Measured values from the NIST ThermoML archive (doi:10.1016/j.fluid.2008.06.007).
± gives the expanded uncertainty stated by the source.

Conditions: Liquid, Vibrating tube method

Q: With `CCCCCO` [pentan-1-ol] as the molecule, how does the mass density (293.15 K, 100 kPa) read?
A: 814.7 ± 1 kg/m3

Q: And the mass density (293.15 K, 10000 kPa)?
A: 821.1 ± 1 kg/m3

Q: And the mass density (293.15 K, 20000 kPa)?
A: 827.3 ± 1.1 kg/m3

Q: What about the mass density (293.15 K, 30000 kPa) of the same molecule?
A: 833.2 ± 1.1 kg/m3

Q: What about the mass density (293.15 K, 40000 kPa) of the same molecule?
A: 838.6 ± 1.1 kg/m3

Q: What about the mass density (293.15 K, 50000 kPa) of the same molecule?
A: 843.6 ± 1.1 kg/m3

Q: What about the mass density (293.15 K, 60000 kPa) of the same molecule?
A: 848.5 ± 1.1 kg/m3

Q: What about the mass density (293.15 K, 70000 kPa) of the same molecule?
A: 853.1 ± 1.1 kg/m3

Q: And the mass density (293.15 K, 80000 kPa)?
A: 857.4 ± 1.1 kg/m3

Q: What about the mass density (293.15 K, 90000 kPa) of the same molecule?
A: 861.7 ± 1.2 kg/m3

Q: And the mass density (293.15 K, 100000 kPa)?
A: 865.8 ± 1.2 kg/m3

Q: What about the mass density (293.15 K, 110000 kPa) of the same molecule?
A: 869.6 ± 1.2 kg/m3

Q: What about the mass density (293.15 K, 120000 kPa) of the same molecule?
A: 873.2 ± 1.2 kg/m3

Q: And the mass density (293.15 K, 130000 kPa)?
A: 876.9 ± 1.2 kg/m3

Q: And the mass density (293.15 K, 140000 kPa)?
A: 880.3 ± 1.2 kg/m3

Q: And the mass density (303.15 K, 100 kPa)?
A: 807.3 ± 1 kg/m3

Q: And the mass density (303.15 K, 10000 kPa)?
A: 814.4 ± 1.1 kg/m3

Q: What about the mass density (303.15 K, 20000 kPa) of the same molecule?
A: 820.7 ± 1.1 kg/m3

Q: What about the mass density (303.15 K, 30000 kPa) of the same molecule?
A: 826.7 ± 1.1 kg/m3

Q: And the mass density (303.15 K, 40000 kPa)?
A: 832.2 ± 1.1 kg/m3

Q: What about the mass density (303.15 K, 50000 kPa) of the same molecule?
A: 837.5 ± 1.1 kg/m3

Q: And the mass density (303.15 K, 60000 kPa)?
A: 842.4 ± 1.1 kg/m3

Q: What about the mass density (303.15 K, 70000 kPa) of the same molecule?
A: 847 ± 1.1 kg/m3

Q: And the mass density (303.15 K, 80000 kPa)?
A: 851.6 ± 1.1 kg/m3

Q: What about the mass density (303.15 K, 90000 kPa) of the same molecule?
A: 855.8 ± 1.2 kg/m3

Q: And the mass density (303.15 K, 100000 kPa)?
A: 860.1 ± 1.2 kg/m3

Q: What about the mass density (303.15 K, 110000 kPa) of the same molecule?
A: 864.1 ± 1.2 kg/m3

Q: What about the mass density (303.15 K, 120000 kPa) of the same molecule?
A: 868 ± 1.2 kg/m3

Q: And the mass density (303.15 K, 130000 kPa)?
A: 871.7 ± 1.2 kg/m3

Q: What about the mass density (303.15 K, 140000 kPa) of the same molecule?
A: 875.2 ± 1.2 kg/m3

Q: And the mass density (313.15 K, 100 kPa)?
A: 799.8 ± 1.1 kg/m3

Q: And the mass density (313.15 K, 10000 kPa)?
A: 807.4 ± 1.1 kg/m3

Q: What about the mass density (313.15 K, 20000 kPa) of the same molecule?
A: 814.1 ± 1.1 kg/m3

Q: And the mass density (313.15 K, 30000 kPa)?
A: 820.2 ± 1.1 kg/m3

Q: What about the mass density (313.15 K, 40000 kPa) of the same molecule?
A: 826 ± 1.1 kg/m3

Q: What about the mass density (313.15 K, 50000 kPa) of the same molecule?
A: 831.5 ± 1.1 kg/m3

Q: And the mass density (313.15 K, 60000 kPa)?
A: 836.6 ± 1.1 kg/m3

Q: What about the mass density (313.15 K, 70000 kPa) of the same molecule?
A: 841.4 ± 1.1 kg/m3

Q: And the mass density (313.15 K, 80000 kPa)?
A: 846.1 ± 1.2 kg/m3

Q: And the mass density (313.15 K, 90000 kPa)?
A: 850.5 ± 1.2 kg/m3

Q: And the mass density (313.15 K, 100000 kPa)?
A: 854.8 ± 1.2 kg/m3

Q: And the mass density (313.15 K, 110000 kPa)?
A: 858.9 ± 1.2 kg/m3

Q: What about the mass density (313.15 K, 120000 kPa) of the same molecule?
A: 862.8 ± 1.2 kg/m3

Q: What about the mass density (313.15 K, 130000 kPa) of the same molecule?
A: 866.6 ± 1.2 kg/m3

Q: What about the mass density (313.15 K, 140000 kPa) of the same molecule?
A: 870.2 ± 1.3 kg/m3

Q: And the mass density (323.15 K, 100 kPa)?
A: 792.5 ± 1.1 kg/m3

Q: And the mass density (323.15 K, 10000 kPa)?
A: 800.3 ± 1.1 kg/m3

Q: What about the mass density (323.15 K, 20000 kPa) of the same molecule?
A: 807.3 ± 1.1 kg/m3

Q: And the mass density (323.15 K, 30000 kPa)?
A: 813.7 ± 1.1 kg/m3

Q: What about the mass density (323.15 K, 40000 kPa) of the same molecule?
A: 819.8 ± 1.1 kg/m3

Q: And the mass density (323.15 K, 50000 kPa)?
A: 825.4 ± 1.1 kg/m3

Q: What about the mass density (323.15 K, 60000 kPa) of the same molecule?
A: 830.7 ± 1.1 kg/m3

Q: And the mass density (323.15 K, 70000 kPa)?
A: 835.7 ± 1.1 kg/m3

Q: And the mass density (323.15 K, 80000 kPa)?
A: 840.4 ± 1.2 kg/m3

Q: And the mass density (323.15 K, 90000 kPa)?
A: 845 ± 1.2 kg/m3

Q: What about the mass density (323.15 K, 100000 kPa) of the same molecule?
A: 849.3 ± 1.2 kg/m3

Q: What about the mass density (323.15 K, 110000 kPa) of the same molecule?
A: 853.6 ± 1.2 kg/m3

Q: And the mass density (323.15 K, 120000 kPa)?
A: 857.6 ± 1.2 kg/m3

Q: And the mass density (323.15 K, 130000 kPa)?
A: 861.5 ± 1.3 kg/m3

Q: What about the mass density (323.15 K, 140000 kPa) of the same molecule?
A: 865.3 ± 1.3 kg/m3

Q: What about the mass density (333.15 K, 100 kPa) of the same molecule?
A: 784.4 ± 1.1 kg/m3

Q: What about the mass density (333.15 K, 10000 kPa) of the same molecule?
A: 792.7 ± 1.1 kg/m3

Q: What about the mass density (333.15 K, 20000 kPa) of the same molecule?
A: 800.1 ± 1.1 kg/m3

Q: And the mass density (333.15 K, 30000 kPa)?
A: 806.8 ± 1.1 kg/m3

Q: What about the mass density (333.15 K, 40000 kPa) of the same molecule?
A: 813.1 ± 1.1 kg/m3

Q: And the mass density (333.15 K, 50000 kPa)?
A: 818.9 ± 1.1 kg/m3

Q: What about the mass density (333.15 K, 60000 kPa) of the same molecule?
A: 824.4 ± 1.1 kg/m3

Q: And the mass density (333.15 K, 70000 kPa)?
A: 829.7 ± 1.2 kg/m3

Q: What about the mass density (333.15 K, 80000 kPa) of the same molecule?
A: 834.6 ± 1.2 kg/m3

Q: What about the mass density (333.15 K, 90000 kPa) of the same molecule?
A: 839.2 ± 1.2 kg/m3

Q: And the mass density (333.15 K, 100000 kPa)?
A: 843.7 ± 1.2 kg/m3

Q: What about the mass density (333.15 K, 110000 kPa) of the same molecule?
A: 848 ± 1.2 kg/m3

Q: And the mass density (333.15 K, 120000 kPa)?
A: 852.1 ± 1.3 kg/m3

Q: And the mass density (333.15 K, 130000 kPa)?
A: 856 ± 1.3 kg/m3

Q: And the mass density (333.15 K, 140000 kPa)?
A: 860 ± 1.3 kg/m3

Q: What about the mass density (343.15 K, 100 kPa) of the same molecule?
A: 776.5 ± 1.1 kg/m3

Q: And the mass density (343.15 K, 10000 kPa)?
A: 785.2 ± 1.1 kg/m3

Q: And the mass density (343.15 K, 20000 kPa)?
A: 792.9 ± 1.1 kg/m3

Q: And the mass density (343.15 K, 30000 kPa)?
A: 799.9 ± 1.1 kg/m3

Q: What about the mass density (343.15 K, 40000 kPa) of the same molecule?
A: 806.6 ± 1.1 kg/m3

Q: What about the mass density (343.15 K, 50000 kPa) of the same molecule?
A: 812.6 ± 1.1 kg/m3

Q: And the mass density (343.15 K, 60000 kPa)?
A: 818.3 ± 1.1 kg/m3

Q: And the mass density (343.15 K, 70000 kPa)?
A: 823.7 ± 1.2 kg/m3

Q: What about the mass density (343.15 K, 80000 kPa) of the same molecule?
A: 828.7 ± 1.2 kg/m3

Q: What about the mass density (343.15 K, 90000 kPa) of the same molecule?
A: 833.5 ± 1.2 kg/m3

Q: What about the mass density (343.15 K, 100000 kPa) of the same molecule?
A: 838.2 ± 1.2 kg/m3

Q: And the mass density (343.15 K, 110000 kPa)?
A: 842.5 ± 1.3 kg/m3

Q: What about the mass density (343.15 K, 120000 kPa) of the same molecule?
A: 846.8 ± 1.3 kg/m3

Q: What about the mass density (343.15 K, 130000 kPa) of the same molecule?
A: 850.9 ± 1.3 kg/m3

Q: What about the mass density (343.15 K, 140000 kPa) of the same molecule?
A: 854.8 ± 1.3 kg/m3
